Measured values as given in US20180103668A1, “CYCLOHEXANECARBOXYLIC ACIDS FOR SELECTIVE TASTE MASKING” (INTERNATIONAL FLAVORS & FRAGRANCES INC., priority 2015, published 2018).

Assays:
[1] = Sour taste-masking effect; details: 10 ppm in water; scale 0 to 10: 0=total masking, 2=intense masking, 5=moderate masking, 8=weak masking, 10=no masking; same in both lactic acid and citric acid
Procedure: (§1) A series of cyclohexanecarboxylic acid solutions in the following were prepared (10 ppm in water):
Lactic acid solution (0.09% by weight in water) and citric acid solution (0.07% by weight in water) were prepared and used, respectively, to evaluate the sour taste-masking effect of cyclohexanecarboxylic acids, which is expressed using an intensity scale of 0 to 10, where 0=total masking, 2=intense masking, 5=moderate masking, 8=weak masking and 10=no masking.

[2] = Bitter taste-masking effect; details: for Intensity Score (bitter taste-masking effect): 10 ppm in water, caffeine 0.07%, scale 0 to 10: 0=total masking, 2=intense masking, 5=moderate masking, 8=weak masking, 10=no masking; for bitter taste-masking effect (in words): 10 ppm, caffeine solution 0.07%
Procedure: as §1
Caffeine solution (0.07% by weight in water) was prepared and used to evaluate the bitter taste-masking effect of cyclohexanecarboxylic acids, which is expressed using an intensity scale of 0 to 10, where 0=total masking, 2=intense masking, 5=moderate masking, 8=weak masking and 10=no masking.

SMILES	Intensity Score (sour taste-masking effect) [1]	Intensity Score (bitter taste-masking effect) [2]	bitter taste-masking effect (in words) [2]
O=C(/C=C/c1ccc(O)c(O)c1)OC1C[C@@](O)(C(=O)O)C[C@@H](OC(=O)/C=C/c2ccc(O)c(O)c2)[C@@H]1O (stereo partly drawn) [Formula V, (1α,3R,4α,5R)-3,5-bis[[3-(3,4-dihydroxyphenyl)-1-oxo-2-propen-1-yl]oxy]-1,4-dihydroxy-cyclohexanecarboxylic acid]	8	3	particularly intense and lasting bitter taste-masking effect
O=C(/C=C/c1ccc(O)c(O)c1)O[C@H]1[C@H](O)C[C@](O)(C(=O)O)C[C@H]1OC(=O)/C=C/c1ccc(O)c(O)c1 [Formula VI, (1R,3R,4S,5R)-3,4-bis[[3-(3,4-dihydroxyphenyl)-1-oxo-2-propen-1-yl]oxy]-1,5-dihydroxy-cyclohexanecarboxylic acid]	8	2	particularly intense and lasting bitter taste-masking effect
O=C(/C=C/c1ccc(O)c(O)c1)O[C@@H]1[C@H](O)C[C@@](O)(C(=O)O)C[C@H]1OC(=O)/C=C/c1ccc(O)c(O)c1 [Formula IV, (1S,3R,4R,5R)-3,4-bis[[3-(3,4-dihydroxyphenyl)-1-oxo-2-propenyl]oxy]-1,5-dihydroxy-cyclohexanecarboxylic acid]	8	2	particularly intense and lasting bitter taste-masking effect
